According to the supplement of paper PMC10307832:

Columns and labels:
Experiment in all cases: relative viability (nuclei count vs DMSO), 5 days (fraction); higher = more cells survive
Shikonin + Bortezomib = compound: CC(C)=CC[C@@H](O)C1=CC(=O)c2c(O)ccc(O)c2C1=O [Shikonin] + CC(C)C[C@H](NC(=O)[C@H](Cc1ccccc1)NC(=O)c1cnccn1)B(O)O [Bortezomib] (partner 0.002 µM)
Method in brief: (§1)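 Lung cancer cell lines were seeded in 1536-well plates and dosed by pin tool the next day, with either a single drug or a fixed anchor-drug dose combined with five library-drug doses (not always all listed) spaced in √10 steps. Five days later, one step fixed the cells and stained their nuclei (final 0.05% Triton X-100, 1% formaldehyde, 1 ug/ml Hoechst), and nuclei were counted on 4× images. Relative viability is the nuclei count in treated wells divided by the count in vehicle wells, and each value is the median of duplicate plates.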

Shikonin + Luminespib = compound: CC(C)=CC[C@@H](O)C1=CC(=O)c2c(O)ccc(O)c2C1=O [Shikonin] + CCNC(=O)c1noc(-c2cc(C(C)C)c(O)cc2O)c1-c1ccc(CN2CCOCC2)cc1 [Luminespib] (partner 0.01 µM)
Method in brief: as §1

Shikonin + Dasatinib = compound: CC(C)=CC[C@@H](O)C1=CC(=O)c2c(O)ccc(O)c2C1=O [Shikonin] + Cc1nc(Nc2ncc(C(=O)Nc3c(C)cccc3Cl)s2)cc(N2CCN(CCO)CC2)n1 [Dasatinib] (partner 0.075 µM)
Method in brief: as §1

[1] = compound: CC(C)N(CCCNC(=O)Nc1ccc(C(C)(C)C)cc1)C[C@H]1O[C@@H](n2ccc3c(N)ncnc32)[C@H](O)[C@@H]1O + CS(=O)(=O)CCNCc1ccc(-c2ccc3ncnc(Nc4ccc(OCc5cccc(F)c5)c(Cl)c4)c3c2)o1 [Lapatinib] (partner 2 µM)
Method in brief: as §1

UMC-11
relative viability (Shikonin + Bortezomib; first compound 0.01 µM): 0.773 | relative viability (Shikonin + Bortezomib; first compound 0.1 µM): 0.854 | relative viability (Shikonin + Bortezomib; first compound 0.3162 µM): 0.675 | relative viability (Shikonin + Bortezomib; first compound 1 µM): 0.812 | relative viability (Shikonin + Luminespib; first compound 0.01 µM): 0.997 | relative viability (Shikonin + Luminespib; first compound 0.1 µM): 1.05 | relative viability (Shikonin + Luminespib; first compound 0.3162 µM): 0.986 | relative viability (Shikonin + Luminespib; first compound 1 µM): 0.996 | relative viability (Shikonin + Dasatinib; first compound 0.01 µM): 0.476 | relative viability (Shikonin + Dasatinib; first compound 0.1 µM): 0.49 | relative viability (Shikonin + Dasatinib; first compound 0.3162 µM): 0.459 | relative viability (Shikonin + Dasatinib; first compound 1 µM): 0.503 | relative viability ([1]; first compound 0.08 µM): 0.864 | relative viability ([1]; first compound 0.253 µM): 0.772 | relative viability ([1]; first compound 0.8 µM): 0.846 | relative viability ([1]; first compound 2.53 µM): 1.02 | relative viability ([1]; first compound 8 µM): 1.05
